Experimental data published in patent publication US7618630B2, “Methods of treating multiple myeloma and myeloma-induced bone resorption using integrin antagonists” (Board of Regents, The University of Texas System, priority 1998, dated 2009).
Entries after “also recorded” stand apart in the source; their conditions may differ. Values belong to the molecule of their own block, whether it stands above or below them.

Columns and labels:
[1] = test system: 5TGM1 mouse myeloma cells; test: α4Ab and melphalan in 5TGM1-inoculated xid-nu-bg mice; assay type: in vivo
Experimental: Here, we studied the effects of a neutralizing antibody to α4 integrin (α4Ab), which disrupts stromal cells/myeloma cell interactions, on the sensitivity of myeloma to melphalan, a most widely-used chemotherapeutic agent for myeloma, using the 5TGM1 mouse myeloma cells that reproducibly cause extensive osteolysis in tumor-bearing animals. The α4Ab (100-200 μg/mouse, i.p., 2 or 3 times a week) and melphalan (50, 100, 200 μg/mouse, i.p., once a week) were administered following inoculation of 5TGM1 cells in the tail vein in male xid-nu-bg mice.

[2] = test system: 5TGM1 myeloma cells; test: Combined effects of melphalan and anti-alpha 4 integrin Ab in 5TGM1 model (scid/nu/bg mice, day 28); assay type: in vivo; details: mAb 200 μg first week then 100 μg, melphalan three times
Experimental: In one particular set of experiments on the combined effects of melphalan and anti-alpha 4 integrin Ab in 5TGM1 model, as shown in an experimental protocol in FIG. 7, an initial high dose of 200 μg mAb was given during the first week, followed by a maintenance dose of 100 μg. Melphalan was given three times. Animals (scid/nu/bg mice) were sacrificed at day 28 and serum IgG2b levels (a surrogate marker of tumor burden) and tumor burden in bone were measured (histomorphometric analysis of bones). […] The data were a summary of two experiments combined.

[3] = test system: 5TGM1 myeloma cells; test: Survival by onset of hindleg paralysis of 5TGM1-bearing mice, melphalan and PS/2 mAb; assay type: in vivo, scid/nu/bg mice
Experimental: We also examined the effects of the combined administration of melphalan (100 μg/mouse) and PS/2 mAb on survival of 5TGM1-bearing mice (scid/nu/bg mice). We evaluated survival by the onset of hindleg paralysis (i.e., the onset of hindleg paralysis was the end-point in these experiments). […] Thus, we can reduce the dose of Melphalan to a quarter in the presence of the anti-α4Ab, as compared to melphalan alone.

[4] = test system: GFP+ 5TGM1 myeloma cells; test: Combination treatment with PS/2 and melphalan in C57BL/KaLwRij model of multiple myeloma; assay type: in vivo, C57BL/KaLwRij mice; details: day 27
Text: Additive/synergistic effects of the combination of PS/2 mAb and melphalan were seen under most conditions. In these experiments, the 5TGM1 cells injected into the animals were transfected with an expression vector containing the GFP gene. These myeloma cells expressed the GFP protein, allowing the myeloma cells to be tracked directly as GFP+ myeloma cells. These myeloma cells could also be tracked as mIgG2b positive cells. The data were only useful on day 27.

[5] = test system: VLA-4 and VLA-5; details: cited from earlier work
[6] = target: VLA-4 (Homo sapiens, UniProt P05556+P13612); details: cited from earlier work
[7] = target: VCAM-1 expressed on ST2 mouse bone marrow stromal cells (murine) (UniProt P29533); test: cell-based or functional assay
[8] = target: integrin VLA-4 expressed on 5TGM1 murine myeloma cells (murine) (UniProt Q00651); test: cell-based or functional assay
[9] = test system: 45Ca-labeled fetal rat long bones; test: Bone resorption in organ cultures of 45Ca-labeled fetal rat long bones; assay type: cell-based
Experimental: Conditioned media harvested from 5TGM1 cultures were assayed for bone-resorbing activity by organ cultures of 45Ca-labeled fetal rat long bones as described previously (Mbalaviele 1995). Pregnant rats were injected with 250 uCi of 45Ca (New England Nuclear) on the 18th day of gestation. Radius and ulna bone shafts were obtained from 19-day fetuses by microdissection, and precultured for 24 h in BGJ medium (Sigma) supplemented with 0.1% BSA between air and liquid-phase on stainless mesh grids. Bones were then cultured in the presence of conditioned media (50% v/v) or in control medium for 120 hours. The media were changed once at 48 hours. At the end of the culture, bones were incubated in ice-cold 5% trichloroacetic acid for 2 h, and 45Ca radioactivity in bones and media determined in a liquid scintillation counter. Bone resorption was quantitated as the percentage of 45Ca released into the medium from bones as calculated by: (45Ca count in medium)/(45Ca count in medium and bone)×100.

[10] = test system: 5TGM1 cells; test: Osteoclastogenic activity of conditioned medium of sVCAM-1-treated 5TGM1 cells in mouse marrow cultures; assay type: cell-based; details: 6 days, 1×10^−7 M sVCAM-1
Experimental: Conditioned medium was harvested from 5TGM1 cells cultured in the presence or absence of sVCAM-1 (1×10^−8 to 1×10^−7 Molar) for 24 hours. Osteoclastogenic activity of these conditioned media was assayed in the mouse marrow cultures. Bone marrow cells (1e6/well) were plated into 48-well plates, and cultured in the presence of conditioned media (hatched bars) or control medium (IMDM) containing the same concentrations of sVCAM-1 (open bars). After 6 days, cultures were fixed and the number of TRAP-positive multinucleated OC-like cells (TRAP+MNC) was determined.

[11] = test system: Rank ligand mRNA; test: Expression of Rank ligand mRNA in 5TGM1 and ST2 cells; assay type: cell-based, mouse
Text: Because Rank ligand appears to be an important mediator of OCL formation and may be the final common pathway for the effects of osteoclastogenic cytokines on OCL formation, we have examined the expression of Rank ligand in 5TGM1 and ST2 cells both individually and when cocultured. We find that coculture of 5TGM1 and ST2 cells induces Rank ligand mRNA in the ST2 cells.

Sequence of VCAM-1 expressed on ST2 mouse bone marrow stromal cells (murine) (P29533 25-739): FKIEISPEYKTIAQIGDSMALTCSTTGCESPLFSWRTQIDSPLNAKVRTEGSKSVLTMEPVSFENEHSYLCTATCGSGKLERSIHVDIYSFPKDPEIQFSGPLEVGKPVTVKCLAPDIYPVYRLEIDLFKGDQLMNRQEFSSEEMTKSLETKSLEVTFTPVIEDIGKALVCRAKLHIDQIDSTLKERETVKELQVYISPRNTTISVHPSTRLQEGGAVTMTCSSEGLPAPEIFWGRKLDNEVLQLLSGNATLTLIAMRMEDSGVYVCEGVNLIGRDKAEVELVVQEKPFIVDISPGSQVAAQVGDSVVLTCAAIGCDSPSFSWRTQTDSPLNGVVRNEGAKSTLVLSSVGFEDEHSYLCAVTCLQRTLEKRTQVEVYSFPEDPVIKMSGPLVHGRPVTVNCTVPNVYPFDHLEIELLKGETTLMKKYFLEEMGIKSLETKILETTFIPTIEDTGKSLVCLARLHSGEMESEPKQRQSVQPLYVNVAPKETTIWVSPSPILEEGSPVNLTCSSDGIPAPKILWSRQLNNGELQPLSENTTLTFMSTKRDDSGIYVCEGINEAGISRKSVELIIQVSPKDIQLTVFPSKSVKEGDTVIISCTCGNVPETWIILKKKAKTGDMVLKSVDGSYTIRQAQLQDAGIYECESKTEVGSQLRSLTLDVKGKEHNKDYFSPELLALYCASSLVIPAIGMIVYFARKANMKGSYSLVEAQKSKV
Sequence of VLA-4 (P13612 34-1032): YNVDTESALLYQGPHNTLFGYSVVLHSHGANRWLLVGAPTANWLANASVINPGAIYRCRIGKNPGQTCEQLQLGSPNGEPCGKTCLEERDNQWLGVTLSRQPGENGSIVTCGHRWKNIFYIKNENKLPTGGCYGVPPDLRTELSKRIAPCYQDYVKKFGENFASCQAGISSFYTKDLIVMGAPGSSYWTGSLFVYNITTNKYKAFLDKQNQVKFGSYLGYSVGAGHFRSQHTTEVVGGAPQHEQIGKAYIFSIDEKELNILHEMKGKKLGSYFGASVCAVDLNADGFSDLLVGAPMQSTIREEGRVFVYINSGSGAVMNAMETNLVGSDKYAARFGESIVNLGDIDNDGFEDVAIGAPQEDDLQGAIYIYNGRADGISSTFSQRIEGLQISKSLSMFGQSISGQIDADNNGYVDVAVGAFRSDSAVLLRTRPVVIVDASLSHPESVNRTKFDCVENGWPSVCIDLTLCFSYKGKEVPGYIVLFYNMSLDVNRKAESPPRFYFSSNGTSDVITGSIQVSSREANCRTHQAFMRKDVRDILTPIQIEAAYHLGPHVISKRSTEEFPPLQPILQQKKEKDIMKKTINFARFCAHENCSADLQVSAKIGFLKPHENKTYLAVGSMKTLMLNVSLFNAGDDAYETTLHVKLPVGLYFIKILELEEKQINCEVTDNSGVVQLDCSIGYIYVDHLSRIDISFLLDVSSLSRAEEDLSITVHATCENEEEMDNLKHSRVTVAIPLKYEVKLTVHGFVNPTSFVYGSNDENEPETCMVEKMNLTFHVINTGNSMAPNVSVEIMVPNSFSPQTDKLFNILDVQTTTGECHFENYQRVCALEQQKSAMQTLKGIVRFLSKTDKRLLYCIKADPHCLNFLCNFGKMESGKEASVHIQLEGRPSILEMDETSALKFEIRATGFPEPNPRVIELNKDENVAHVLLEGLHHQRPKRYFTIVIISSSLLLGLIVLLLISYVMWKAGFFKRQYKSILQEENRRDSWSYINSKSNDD
Sequence of VLA-4 (P05556 21-798): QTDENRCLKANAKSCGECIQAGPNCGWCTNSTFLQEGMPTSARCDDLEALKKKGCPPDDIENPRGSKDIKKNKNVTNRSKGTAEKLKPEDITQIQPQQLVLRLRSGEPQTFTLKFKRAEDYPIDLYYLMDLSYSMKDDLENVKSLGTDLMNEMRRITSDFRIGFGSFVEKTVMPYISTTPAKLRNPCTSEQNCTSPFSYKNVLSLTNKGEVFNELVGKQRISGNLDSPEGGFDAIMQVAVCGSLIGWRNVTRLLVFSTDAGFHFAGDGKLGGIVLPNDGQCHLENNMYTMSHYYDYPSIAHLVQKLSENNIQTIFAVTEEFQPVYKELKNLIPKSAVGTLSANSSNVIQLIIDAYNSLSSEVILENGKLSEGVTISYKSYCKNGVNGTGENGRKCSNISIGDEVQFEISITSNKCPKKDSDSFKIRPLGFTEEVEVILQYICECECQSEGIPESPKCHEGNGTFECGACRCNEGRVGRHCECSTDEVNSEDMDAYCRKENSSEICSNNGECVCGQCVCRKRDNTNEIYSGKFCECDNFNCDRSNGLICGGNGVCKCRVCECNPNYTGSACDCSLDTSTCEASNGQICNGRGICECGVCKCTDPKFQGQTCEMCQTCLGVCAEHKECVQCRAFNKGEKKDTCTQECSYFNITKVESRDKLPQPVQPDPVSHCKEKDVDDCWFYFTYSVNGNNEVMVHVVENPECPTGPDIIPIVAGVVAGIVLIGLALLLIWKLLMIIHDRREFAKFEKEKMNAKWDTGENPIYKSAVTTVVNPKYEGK
Sequence of integrin VLA-4 expressed on 5TGM1 murine myeloma cells (murine) (Q00651 41-1039, chain 1 of 2): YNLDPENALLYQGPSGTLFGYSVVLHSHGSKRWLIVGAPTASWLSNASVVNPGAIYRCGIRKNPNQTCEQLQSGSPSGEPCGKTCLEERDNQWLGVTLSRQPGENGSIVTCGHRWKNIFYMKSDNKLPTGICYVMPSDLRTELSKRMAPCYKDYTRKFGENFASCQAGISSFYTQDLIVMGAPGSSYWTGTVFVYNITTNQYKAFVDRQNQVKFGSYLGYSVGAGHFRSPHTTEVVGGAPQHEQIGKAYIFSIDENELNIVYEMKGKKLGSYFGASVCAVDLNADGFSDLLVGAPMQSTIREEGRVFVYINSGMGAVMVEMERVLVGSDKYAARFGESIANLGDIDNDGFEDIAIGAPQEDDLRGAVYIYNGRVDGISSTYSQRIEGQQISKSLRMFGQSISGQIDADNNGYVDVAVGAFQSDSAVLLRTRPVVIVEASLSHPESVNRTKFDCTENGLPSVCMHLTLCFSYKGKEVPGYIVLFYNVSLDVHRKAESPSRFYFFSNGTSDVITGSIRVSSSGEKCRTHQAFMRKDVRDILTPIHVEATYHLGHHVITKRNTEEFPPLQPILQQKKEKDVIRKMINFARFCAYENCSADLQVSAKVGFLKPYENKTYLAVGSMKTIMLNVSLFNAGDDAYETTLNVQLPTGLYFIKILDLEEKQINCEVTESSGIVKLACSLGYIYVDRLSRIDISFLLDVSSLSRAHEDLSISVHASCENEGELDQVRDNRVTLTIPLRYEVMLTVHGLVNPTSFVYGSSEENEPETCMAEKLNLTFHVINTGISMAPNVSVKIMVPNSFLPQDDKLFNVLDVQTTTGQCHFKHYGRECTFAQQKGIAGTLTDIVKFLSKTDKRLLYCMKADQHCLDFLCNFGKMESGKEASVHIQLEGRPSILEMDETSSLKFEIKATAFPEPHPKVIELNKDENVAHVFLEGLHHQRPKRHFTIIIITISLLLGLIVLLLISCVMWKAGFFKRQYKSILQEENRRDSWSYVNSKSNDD
Sequence of integrin VLA-4 expressed on 5TGM1 murine myeloma cells (murine) (P09055 21-798, chain 2 of 2, further chain): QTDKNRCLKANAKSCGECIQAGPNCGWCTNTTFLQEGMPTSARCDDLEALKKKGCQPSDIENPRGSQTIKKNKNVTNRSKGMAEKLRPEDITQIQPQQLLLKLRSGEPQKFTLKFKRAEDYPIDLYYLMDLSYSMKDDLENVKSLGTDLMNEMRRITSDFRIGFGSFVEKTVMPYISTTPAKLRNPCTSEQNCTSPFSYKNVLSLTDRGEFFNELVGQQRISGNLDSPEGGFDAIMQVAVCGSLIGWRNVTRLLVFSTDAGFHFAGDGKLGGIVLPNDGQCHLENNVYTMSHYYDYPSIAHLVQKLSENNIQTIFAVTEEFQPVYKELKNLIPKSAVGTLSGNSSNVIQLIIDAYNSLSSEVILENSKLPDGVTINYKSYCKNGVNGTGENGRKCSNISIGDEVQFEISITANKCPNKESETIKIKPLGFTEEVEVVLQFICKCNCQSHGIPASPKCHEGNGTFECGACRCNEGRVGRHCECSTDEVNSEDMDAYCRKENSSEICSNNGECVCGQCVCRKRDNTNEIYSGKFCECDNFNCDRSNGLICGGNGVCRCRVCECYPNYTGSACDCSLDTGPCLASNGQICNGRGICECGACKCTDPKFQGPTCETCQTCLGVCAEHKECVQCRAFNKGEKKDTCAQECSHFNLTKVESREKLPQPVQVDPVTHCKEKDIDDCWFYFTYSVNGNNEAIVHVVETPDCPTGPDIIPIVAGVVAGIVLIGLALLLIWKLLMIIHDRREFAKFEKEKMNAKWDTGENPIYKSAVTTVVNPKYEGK

Molecule: N[C@@H](Cc1ccc(N(CCCl)CCCl)cc1)C(=O)O [melphalan]
- serum IgG2 levels ([1]; melphalan alone 200 μg/mouse): significantly suppressed
- serum IgG2 levels ([1]; melphalan alone 50 and 100 μg/mouse i.p. once a week): failed to suppress serum IgG2 levels
- serum IgG2b levels [2]: only modestly affected
- onset of hindleg paralysis ([3]; melphalan 100 μg/mouse and/or anti-α4Ab): had no effect on the onset of hindleg paralysis
- onset of hindleg paralysis ([3]; melphalan alone 200 μg/mouse): significantly delayed the onset
- mIgG2b plasma levels [4]: unaffected
- percentage of GFP+ myeloma cells in blood [4]: unaffected
- percentage of GFP+ myeloma cells in bone marrow [4]: Neither melphalan nor PS/2 mAb alone affected
- percentage of GFP+ myeloma cells in spleen [4]: unaffected

Molecule: Arg-Cys-Asp-TPro-Cys
- inhibition of VLA-4 and VLA-5 adhesion to fibronectin [5]: can inhibit both VLA-4 and VLA-5 adhesion to fibronectin

Molecule: Glu-Ile-Leu-Asp-Val (EILDV) [pentapeptide of the fibronectin CS-1 region]
- inhibitory activity against fibronectin-dependent cell adhesion [6]: possessed inhibitory activity against fibronectin-dependent cell adhesion

Molecule: Leu-Asp-Val-Pro-Ser (LDVPS) [pentapeptide of the fibronectin CS-1 region]
- inhibitory activity against fibronectin-dependent cell adhesion [6]: possessed inhibitory activity against fibronectin-dependent cell adhesion

- attachment of 5TGM1 cells to ST2 monolayers [7]: 50 to 80%
Molecule: mAb M/K-2.7 to murine VCAM-1 (antibody)

- attachment of 5TGM1 cells to ST2 monolayers [8]: 50 to 80%
Molecule: mAb PS/2 to VLA-4 (antibody)

B1: sVCAM-1: recombinant soluble VCAM-1 containing the 7 extracellular domains of human VCAM-1 (protein)
chain: FKIETTPESRYLAQIGDSVSLTCSTTGCESPFFSWRTQIDSPLNGKVTNEGTTSTLTMNPVSFGNEHSYLCTATCESRKLEKGIQVEIYSFPKDPEIHLSGPLEAGKPITVKCSVADVYPFDRLEIDLLKGDHLMKSQEFLEDADRKSLETKSLEVTFTPVIEDIGKVLVCRAKLHIDEMDSVPTVRQAVKELQVYISPKNTVISVNPSTKLQEGGSVTMTCSSEGLPAPEIFWSKKLDNGNLQHLSGNATLTLIAMRMEDSGIYVCEGVNLIGKNRKEVELIVQEKPFTVEISPGPRIAAQIGDSVMLTCSVMGCESPSFSWRTQIDSPLSGKVRSEGTNSTLTLSPVSFENEHSYLCTVTCGHKKLEKGIQVELYSFPRDPEIEMSGGLVNGSSVTVSCKVPSVYPLDRLEIELLKGETILENIEFLEDTDMKSLENKSLEMTFIPTIEDTGKALVCQAKLHIDDMEFEPKQRQSTQTLYVNVAPRDTTVLVSPSSILEEGSSVNMTCLSQGFPAPKILWSRQLPNGELQPLSENATLTLISTKMEDSGVYLCEGINQAGRSRKEVELIIQVTPKDIKLTAFPSESVKEGDTVIISCTCGNVPETWIILKKKAETGDTVLKSIDGAYTIRKAQLKDAGVYECESKNKVGSQLRSLTLDVQGRENNKDYFSPE
- bone resorption by conditioned medium of 5TGM1 treated with sVCAM-1 [9]: increased bone resorption in fetal rat long bones in a dose-dependent manner
- bone resorption, soluble VCAM-1 itself [9]: had no effects on bone resorption
- OC-like cell (TRAP(+)MNC) formation by conditioned medium from 5TGM1 cells treated with sVCAM-1 [10]: showed increased activity of OC-like cell formation; also recorded: increased TRAP(+)MNC formation
- Rank ligand expression in 5TGM1 cells ([11]; 5TGM1 cells treated with sVCAM-1): they do so when treated with sVCAM-1
- Rank ligand mRNA in ST2 cells ([11]; conditioned medium from 5TGM1 cells treated with sVCAM-1): induced Rank ligand mRNA in ST2 cells
